We go through 33 compounds from US7008636B2, “2,3,5-substituted biphenyls useful in the treatment of insulin resistance and hyperglycemia” (Wyeth, priority 1998, dated 2006).

Where a name gives a salt, the structure may show the parent alone.

`O=C(O)COc1c(-c2ccccc2)cc(C(=O)NCCCCCCCCc2ccccc2)cc1-c1cc(Cl)cc(Cl)c1` [Example 27, [3,5-Dichloro-5′-(8-phenyl-octylcarbamoyl)-[1,1′;3′,1″]terphenyl-2′-yloxy]-acetic acid] gave a melting point of 82 to 83.1 °C.

Turning to `COc1ccc(-c2cc(C(=O)N(CCc3ccccc3)Cc3ccccc3)cc(-c3ccccc3F)c2OCC(=O)O)cc1` [Example 68, [5′-(Benzyl-phenethyl-carbamoyl)-2-fluoro-4″-methoxy-[1,1′;3′,1″]-terphenyl-2′-yloxy]acetic acid], the melting point was > 73 °C (dec.).

The compound `O=C(O)COc1c(-c2ccccc2)cc([N+](=O)[O-])cc1-c1ccccc1` [Example 38, (5′-Nitro-[1,1′;3′,1″]terphenyl-2′-yloxy)-acetic acid] had a melting point of 153.5 to 156 °C.

For the compound `O=C(O)COc1c(-c2cccc(Cl)c2)cc(C(=O)NCCc2ccc(Br)cc2)cc1-c1cccc(C(F)(F)F)c1` [Example 63, {5′-[2-(4-Bromo-phenyl)-ethylcarbamoyl]-3″-chloro-3-trifluoromethyl-[1,1′;3′,1″]-terphenyl-2′-yloxy}acetic acid], the melting point is > 102 °C (dec.).

`CCCCCCCCCCCCNC(=O)c1cc(Br)c(OCCNC(=O)OC)c(-c2cccc(C(F)(F)F)c2)c1` [Example 188, [2-(3-Bromo-5-dodecylcarbamoyl-3′-trifluoromethyl-biphenyl-2-yloxy)-ethyl]-carbamic acid methyl ester] displayed a melting point of 79.6 to 80.5 °C.

In the case of `COc1ccc(-c2cc(C(=O)NCCCCCCc3ccccc3)cc(-c3ccccc3F)c2OCC(=O)O)cc1` [Example 78, [2-Fluoro-4″-methoxy-5′-(6-phenyl-hexylcarbamoyl)-[1,1′;3′,1″]-terphenyl-2′-yloxy]acetic acid], the melting point was > 72 °C (dec.).

Consider `O=C(O)COc1c(-c2ccccc2)cc(-c2ccccc2)cc1-c1ccccc1` [Example 41, [(5′-Phenyl[1,1′:3′,1″-terphenyl]-2′-yl)oxy]acetic acid], for which the melting point is > 68 °C (dec.).

Turning to `COc1ccc(-c2cc(C(=O)NCCCC3CCCC3)cc(-c3cccc(C(F)(F)F)c3)c2OCC(=O)O)cc1` [Example 66, [5′-(3-Cyclopentyl-propylcarbamoyl)-4″-methoxy-3-trifluoromethyl-[1,1′;3′,1″]-terphenyl-2′-yloxy]acetic acid], the melting point is > 114 °C (dec.).

With `O=C(O)COc1c(-c2cccc(Cl)c2)cc(C(=O)NCCc2ccccn2)cc1-c1cccc(C(F)(F)F)c1` [Example 58, [3″-Chloro-5′-(2-pyridin-2-yl-ethylcarbamoyl)-3-trifluoromethyl-[1,1′;3′,1″]terphenyl-2′-yloxy]acetic acid], the melting point is > 92 °C (dec.).

In turn, `CCCCCCCCCCCCNC(=O)c1cc(Br)c(OCCn2cnnn2)c(-c2cccc(OC)c2)c1` [Example 138, 5-Bromo-6-(2-tetrazol-1-yl-ethoxy)-3′-methoxy-biphenyl-3-carboxylic acid dodecylamide] gave a melting point of 100 to 101 °C.

As to `O=C(O)COc1c(-c2cccc(Cl)c2)cc(C(=O)NCCCC2CCCC2)cc1-c1cccc(C(F)(F)F)c1` [Example 61, [3″-Chloro-5′-(3-cyclopentyl-propylcarbamoyl)-3-trifluoromethyl-[1,1′;3′,1″]-terphenyl-2′-yloxy]acetic acid], the melting point was in the range of 173 to 175 °C.

For the compound `O=C(O)COc1c(Br)cc(C(=O)N(CCc2ccccc2)Cc2ccccc2)cc1-c1cccc(Cl)c1` [Example 55, [5-(Benzyl-phenethyl-carbamoyl)-3-bromo-3′-chloro-biphenyl-2-yloxy]acetic acid], the melting point was > 72 °C (dec.).

`CCOP(=O)(COc1c(-c2cccc(C(F)(F)F)c2)cc(C(=O)NCCCCCCCc2ccccc2)cc1-c1cccc(C(F)(F)F)c1)OCC` (hydrate or solvate) had a melting point of 84 to 85 °C.

`CCCCCCCCOc1cc(-c2ccccc2)c(OCC(=O)O)c(-c2ccccc2)c1` [Example 45, (5′-Octyloxy-[1,1′;3′,1″]terphenyl-2′-yloxy)acetic acid] returned a melting point of 82 to 84 °C.

`O=C(O)COc1c(-c2cccc(C(F)(F)F)c2)cc(C(=O)NCCCCCCCCc2ccccc2)cc1-c1cccc(C(F)(F)F)c1` [Example 7]: the melting point was in the range of 143 to 145.4 °C.

`O=C(O)COc1c(Br)cc(C(=O)NCCCC2CCCC2)cc1-c1ccccc1F` [Example 75, [3-Bromo-5-(3-cyclopentyl-propylcarbamoyl)-2′-fluoro-biphenyl-2-yloxy]acetic acid]: the melting point was > 127 °C (dec.).

Regarding `COc1ccc(-c2cc(C(=O)NCCCCCCCCc3ccccc3)cc(-c3ccccc3F)c2OCC(=O)O)cc1` [Example 76, [2-Fluoro-4″-methoxy-5′-(8-phenyl-octylcarbamoyl)-[1,1′;3′,1″]-terphenyl-2′-yloxy]acetic acid], the melting point is > 84 °C (dec.).

As for `CCCCCCCCCCCCNC(=O)c1cc(Br)c(OCCn2cnnn2)c(-c2cccc(C(F)(F)F)c2)c1` [Example 183, 5-Bromo-6-(2-tetrazol-1-yl-ethoxy)-3′-trifluoromethyl-biphenyl-3-carboxylic acid dodecylamide], the melting point is 91.5 to 92.6 °C.

In the case of `O=C(O)COc1c(Br)cc(C(=O)NCCc2ccccn2)cc1-c1cccc(Cl)c1` [Example 56, [3-Bromo-3′-chloro-5-(2-pyridin-2-yl-ethylcarbamoyl)-biphenyl-2-yloxy]acetic acid], the melting point was > 102 °C (dec.).

For `O=C(O)COc1c(-c2cccc(Cl)c2)cc(C(=O)NCCc2ccccn2)cc1-c1cccc(Cl)c1` [Example 52, [3,3″-Dichloro-5′-(2-pyridin-2-yl-ethylcarbamoyl)-[1,1′;3′,1″]terphenyl-2′-yloxy]acetic acid], the melting point was > 94 °C (dec.).

For the compound `COc1ccc(-c2cc(C(=O)NCCCc3ccccc3)cc(-c3ccccc3F)c2OCC(=O)O)cc1` [Example 71, [2-Fluoro-4″-methoxy-5′-(3-phenyl-propylcarbamoyl)-[1,1′;3′,1″]-terphenyl-2′-yloxy]acetic acid], the melting point was > 89 °C (dec.).

On to `O=C(O)COc1c(-c2ccccc2)cc2oc3ccccc3c2c1-c1ccccc1` [Example 42, (1,3-Diphenyl-dibenzofuran-2-yloxy)-acetic acid], for which the melting point was > 120 °C (dec.).

In turn, `O=C(O)COc1c(-c2cccc(Cl)c2)cc(C(=O)NCCCCCCCCc2ccccc2)cc1-c1cccc(Cl)c1` [Example 35, [3,3″-Dichloro-5′-(8-phenyl-octylcarbamoyl)-[1,1′;3′,1″]terphenyl-2′-yloxy]-acetic acid] returned a melting point of 165 to 167 °C.

Turning to `O=C(O)COc1c(Br)cc(C(=O)N(CCc2ccccc2)Cc2ccccc2)cc1-c1ccccc1F` [Example 69, [5-(Benzylphenethyl-carbamoyl)-3-bromo-2′-fluoro-biphenyl-2-yloxy]acetic acid], the melting point is > 85 °C (dec.).

In the case of `CCCCCCCCCCCCNC(=O)c1cc(-c2cccc(Cl)c2)c(OCC(=O)O)c(-c2cccc(Cl)c2)c1` [Example 33, (3,3″-Dichloro-5′-dodecylcarbamoyl-[1,1′;3′,1″]terphenyl-2′-yloxy)-acetic acid], the melting point was 151 to 156 °C.

`COc1cc(-c2ccccc2)c(OCC(=O)O)c(-c2ccccc2)c1` [Example 39, (5′-Methoxy-[1,1′;3′,1″]terphenyl-2′-yloxy)acetic acid] had a melting point of 143 to 145 °C.

In the case of `COc1ccc(-c2cc(C(=O)NCCCC3CCCC3)cc(-c3ccccc3F)c2OCC(=O)O)cc1` [Example 74, [5′-(3-Cyclopentyl-propylcarbamoyl)-2-fluoro-4″-methoxy-[1,1′;3′,1″]-terphenyl-2′-yloxy]acetic acid], the melting point is > 97 °C (dec.).

In turn, `CCCCCCCCCCCCNC(=O)c1cc(-c2ccc(F)c(Cl)c2)c(OCC(=O)O)c(-c2ccc(F)c(Cl)c2)c1` (as salt: sodium) [Example 24, (3,3″-Dichloro-5′-dodecylcarbamoyl-4,4″-difluoro[1,1′;3′,1″]terphenyl(-2′-yloxy)-acetic acid sodium salt] registered a melting point of 140.2 to 141 °C.

`CCCCOc1cc(-c2ccccc2)c(OCC(=O)O)c(-c2ccccc2)c1` [Example 44, (5′-Butoxy-[1,1′;3′,1″]terphenyl-2′-yloxy)acetic acid] came in with a melting point of 92 to 94 °C.

For the compound `O=C(O)COc1c(Br)cc(C(=O)NCCCCCCc2ccccc2)cc1-c1ccccc1F` [Example 79, [3-Bromo-2′-fluoro-5-(6-phenyl-hexylcarbamoyl)-biphenyl-2-yloxy]acetic acid], the melting point was > 84 °C (dec.).

For the compound `O=C(O)COc1c(-c2cccc(Cl)c2)cc(C(=O)N(CCc2ccccc2)Cc2ccccc2)cc1-c1cccc(Cl)c1` [Example 53, [5′-(Benzyl-phenethyl-carbamoyl)-3,3″-Dichloro-[1,1′;3′,1″]terphenyl-2′-yloxy]acetic acid], the melting point is > 67 °C (dec.).

Take `COc1ccc(-c2cc(C(=O)NCCc3ccccn3)cc(-c3cccc(C(F)(F)F)c3)c2OCC(=O)O)cc1` [Example 65, [4″-Methoxy-5′-(2-pyridin-2-yl-ethylcarbamoyl)-3-trifluoromethyl-[1,1′;3′,1″]-terphenyl-2′-yloxy]acetic acid]: the melting point was > 105 °C (dec.).

`O=C(O)c1ccc(COc2c(-c3cccc(C(F)(F)F)c3)cc(C(=O)NCCCCCCCc3ccccc3)cc2-c2cccc(C(F)(F)F)c2)cc1` (hydrate or solvate) [Example 134, 4-[5′-(7-Phenyl-heptylcarbamoyl)-3,3″-bis-trifluoromethyl-[1,1′:3′,1″]terphenyl-2′-yloxymethyl]-benzoic acid] gave a melting point of 89 to 91 °C.

For orientation: melting point means the temperature, or range, at which the solid turns liquid.
